Here are results for 19 compounds from patent US7030145B2, “Pyridinyl derivatives for the treatment of depression” (Bristol-Myers Squibb Company, priority 2003, dated 2006).

In data set [1] the target is T1, cloned human CRF-R1 receptors (Homo sapiens, UniProt P34998).
T1 construct: the coding region was amplifies by PCR from start to stop codons; expressed in transfected cells; membranes
T1 sequence (P34998 24-415): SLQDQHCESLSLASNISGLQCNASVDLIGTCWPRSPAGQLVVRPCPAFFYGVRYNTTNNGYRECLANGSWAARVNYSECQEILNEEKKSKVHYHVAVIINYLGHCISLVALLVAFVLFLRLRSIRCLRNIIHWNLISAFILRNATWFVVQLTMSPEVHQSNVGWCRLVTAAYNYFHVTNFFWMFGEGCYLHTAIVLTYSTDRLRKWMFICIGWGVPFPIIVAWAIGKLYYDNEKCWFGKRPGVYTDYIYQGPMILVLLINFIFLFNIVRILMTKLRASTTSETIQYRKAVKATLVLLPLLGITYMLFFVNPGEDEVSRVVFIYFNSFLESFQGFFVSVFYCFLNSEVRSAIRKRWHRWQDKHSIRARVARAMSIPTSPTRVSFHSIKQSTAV
The data set is described as follows: CRF-R1 receptor binding assay (inhibition of 125I-ovine-CRF binding to cell membranes). Set-up: key to activity (Ki class in the CRF assays): a: Ki≦100 nM; b: 100 nM<Ki≦500 nM; c: 500 nM<Ki≦5,000 nM; activity reported in percent inhibition at 10 μM. As to conditions: membranes of 293EBNA cells transfected with hCRFR1, class d = reported as percent inhibition at 10 μM, figures not given; for Ki: read-out: activity (Ki class in the CRF assays). From the text: The following is a description of the isolation of cell membranes containing cloned human CRF-R1 receptors for use in a standard binding assay as well as a description of the assay itself.
Messenger RNA was isolated from human hippocampus. […]. The mRNA was reverse transcribed using oligo (dt) 12–18 and the coding region was amplifies by PCR from start to stop codons. The resulting PCR fragment was cloned into the EcoRV site of pGEMV, from whence the insert was reclaimed using XhoI+XbaI and cloned into the XhoI+XbaI sites of vector pm3 as (which contains a CMV promoter, the SV′t′ splice and early poly A signals, an Eptein-Barr viral origin of replication, and a hygromycin selectable marker). The resulting expression vector, called phchCRFR was transfected in 293EBNA cells and cells retaining the episome were selected in the presence of […] hygromycin. Cells surviving 4 weeks of selection in hygromycin were pooled, adapted to growth in suspension and used to generate membranes for the binding assay described below. Individual aliquots containing approximately 1×10^8 of the suspended cells were then centrifuged to form a pellet and frozen. For the binding assay a frozen pellet described above containing 293EBNA cells transfected with hCRFR1 receptors is homogenized in 10 mL of ice cold tissue buffer (50 mM HEPES buffer pH 7.0, containing 10 MM MgCl2, 2 mM EGTA, 1 μg/mL apotinin, 1 μg/mL leupeptin and 1 μg/mL pepstatin). The homoginate is centrifuged at 40,000×g for 12 min and the resulting pellet rehomogenized in 10 mL of tissue buffer. After another centrifugation at 40,000×g for 12 min, the pellet is resuspended to a protein concentration of 360 μg/mL to be used in the assay.
Binding assays are performed in 96 well plates; each well having a 300 μL capacity. To each well is added 50 μL of test drug dilutions (final concentration of drugs range from 10^−10–10^−5 M), 100 μL of ^125I-ovine-CRF (^125I-o-CRF) (final concentration 150 pM) and 150 μL of the cell homoginate described above. Plates are then allowed to incubate at room temperature for 2 hours before filtering the incubate over GF/F filters (presoaked with 0.3% polyethyleneimine) using an appropriate cell harvester. Filters are rinsed 2 times with ice cold assay buffer before removing individual filters and assessing them for radioactivity on a gamma counter.
Curves of the inhibition of ^125I-o-CRF binding to cell membranes at various dilutions of test drug are analyzed by the iterative curve fitting program LIGAND [P. J. Munson and D. Rodbard, Anal. Biochem., 107:220 (1980), which provides Ki values for inhibition which are then used to assess biological activity. […]
Messenger RNA was isolated from human hippocampus. The mRNA was isolated from human hippocampus. The mRNA was reverse transcribed using oligo (dt) 12–18 and the coding region was amplifies by PCR from start to stop codons. The resulting PCR fragment was cloned into the EcoRV site of pGEMV, from whence the insert was reclaimed using XhoI+XbaI and cloned into the XhoI+XbaI sites of vector pm3 as (which contains a CMV promoter, the SV′t′ splice and early poly A signals, an Eptein-Barr viral origin of replication, and a hygromycin selectable marker). The resulting expression vector, called phchCRFR was transfected in 293EBNA cells and cells retaining the episome were selected in the presence of […] hygromycin. Cells surviving 4 weeks of selection in hygromycin were pooled, adapted to growth in suspension and used to generate membranes for the binding assay described below. […]
A frozen pellet described above containing 293EBNA cells transfected with hCRFR1 receptors or the rat frontal cortex tissue dissected from frozen rat brains was prepared as the source of membranes expressing CRF1 receptors used in binding assays. […]

One may read the melting point as the temperature, or range, at which the solid turns liquid. With `COc1ccc(Nc2nc(C)ccc2S(=O)(=O)c2ccc(OCc3ccccc3OC)cc2)c(C)c1` [Example 1, {3-[4-(2-Methoxybenzyloxy)-benzenesulfonyl]-6-methylpyridin-2-yl}-(4-methoxy-2-methylphenyl)-amine], the melting point was 70 to 72 °C. For the same compound, in data set [1], the “activity (Ki class in the CRF assays)” value is given as “d”.
On the same counts, the results for `COc1cc(Cl)c(Nc2nc(C)ccc2S(=O)(=O)c2ccc(OCc3ccccc3OC)cc2)cc1F` [Example 2, (2-Chloro-5-fluoro-4-methoxyphenyl)-{3-[4-(2-methoxybenzyloxy)-benzenesulfonyl]-6-methylpyridin-2-yl}-amine] are 62 to 64 °C and “d”.
`COc1ccccc1COc1ccc(S(=O)(=O)c2ccc(C)nc2Nc2cc(F)c(N(C)C)cc2Cl)cc1` [Example 3, 2-Chloro-5-fluoro-N^1-{3-[4-(2-methoxybenzyloxy)-benzenesulfonyl]-6-methylpyridin-2-yl}-N^4,N^4-dimethylbenzene-1,4-diamine] displayed a melting point of 68 to 70 °C. Further, in data set [1], the “activity (Ki class in the CRF assays)” value is reported as “d”.
On the same counts, the results for `COc1ccccc1COc1ccc(S(=O)(=O)c2ccc(C)nc2Nc2cc(OC)c(OC)cc2C)cc1` [Example 4, (4,5-Dimethoxy-2-methylphenyl)-{3-[4-(2-methoxybenzyloxy)-benzenesulfonyl]-6-methylpyridin-2-yl}-amine] are 62 to 66 °C and “d”.
On the same counts, the results for `COc1ccccc1COc1ccc(S(=O)(=O)c2ccc(C)nc2Nc2ccc(OC(F)F)cc2Cl)cc1` [Example 5, (2-Chloro-4-difluoromethoxyphenyl)-{3-[4-(2-methoxybenzyloxy)-benzenesulfonyl]-6-methylpyridin-2-yl}-amine] are 124 to 125 °C and “d”.
For `COc1ccccc1COc1ccc(S(=O)(=O)c2ccc(C)nc2Nc2cc(OC)c(OC)cc2Cl)cc1` [Example 6, (2-Chloro-4,5-dimethoxyphenyl)-{3-[4-(2-methoxybenzyloxy)-benzenesulfonyl]-6-methylpyridin-2-yl}-amine], the melting point lay within 149 to 151 °C. In addition, the “activity (Ki class in the CRF assays)” value in data set [1] is listed as “d”.
As to `COc1ccccc1COc1ccc(S(=O)(=O)c2ccc(C)nc2Nc2ccc(S(C)(=O)=O)cc2Cl)cc1` [Example 7, (2-Chloro-4-methanesulfonylphenyl)-{3-[4-(2-methoxybenzyloxy)-benzenesulfonyl]-6-methylpyridin-2-yl}-amine], the melting point was 100 to 102 °C. Also, the “activity (Ki class in the CRF assays)” value in data set [1] was “d”.
The compound `COc1ccccc1COc1ccc(S(=O)(=O)c2ccc(C)nc2Nc2ccc(Cl)cc2C#N)cc1` [Example 8, 5-Chloro-2-{3-[4-(2-methoxybenzyloxy)-benzenesulfonyl]-6-methylpyridin-2-ylamino}-benzonitrile] showed a melting point of 178 to 180 °C. Also, the “activity (Ki class in the CRF assays)” value in data set [1] is listed as “d”.
As usually defined, the Ki is a dissociation constant, usually derived from enzyme kinetics or from competition with a known ligand. Take `COc1ccc(S(=O)(=O)c2ccc(C)nc2Nc2c(C)cc(C)cc2C)cc1` [Example 9, [3-(4-Methoxybenzenesulfonyl)-6-methylpyridin-2-yl]-(2,4,6-trimethylphenyl)-amine]: the melting point was 165 to 167 °C. Also, the Ki in data set [1] lay in the range of 0.1 to 0.5 µM.
`Cc1cc(C)c(Nc2nc(C)ccc2S(=O)(=O)c2ccc(O)cc2)c(C)c1` [Example 10, 4-[6-Methyl-2-(2,4,6-trimethylphenylamino)-pyridine-3-sulfonyl]-phenol]: the melting point was in the range of 226 to 228 °C. The Ki in data set [1] was 0.5 to 5 µM.
`Cc1cc(C)c(Nc2nc(C)ccc2S(=O)(=O)c2ccc(OCc3ccccc3)cc2)c(C)c1` [Example 11, [3-(4-Benzyloxybenzenesulfonyl)-6-methylpyridin-2-yl]-(2,4,6-trimethylphenyl)-amine] gave a melting point of 158 to 160 °C. Moreover, the Ki in data set [1] was no more than 0.1 µM.
In turn, `CCOc1ccc(S(=O)(=O)c2ccc(C)nc2Nc2c(C)cc(C)cc2C)cc1` [Example 12, [3-(4-Ethoxybenzenesulfonyl)-6-methylpyridin-2-yl]-(2,4,6-trimethylphenyl)-amine] returned a melting point of 157 to 159 °C. The “activity (Ki class in the CRF assays)” value in data set [1] is “d”.
For the compound `Cc1cc(C)c(Nc2nc(C)ccc2S(=O)(=O)c2ccc(OCCCC#N)cc2)c(C)c1` [Example 14, 4-{4-[6-Methyl-2-(2,4,6-trimethylphenylamino)-pyridine-3-sulfonyl]-phenoxy}-butyronitrile], the melting point lay within 160 to 162 °C. In addition, the Ki in data set [1] lay in the range of 0.5 to 5 µM.
In turn, `Cc1cc(C)c(Nc2nc(C)ccc2S(=O)(=O)c2ccc(OCCCCC#N)cc2)c(C)c1` [Example 15, 5-{4-[6-Methyl-2-(2,4,6-trimethylphenylamino)-pyridine-3-sulfonyl]-phenoxy}-pentanenitrile] came in with a melting point of 115 to 116 °C. Besides, the Ki in data set [1] was 0.1 to 0.5 µM.
Consider `Cc1cc(C)c(Nc2nc(C)ccc2S(=O)(=O)c2ccc(OCCCO)cc2)c(C)c1` [Example 16, 3-{4-[6-Methyl-2-(2,4,6-trimethylphenylamino)-pyridine-3-sulfonyl]-phenoxy}-propan-1-ol], for which the melting point fell in the range of 152 to 153 °C. The Ki in data set [1] is 0.5 to 5 µM.
Taken in the same sequence, the figures for `CCOC(=O)COc1ccc(S(=O)(=O)c2ccc(C)nc2Nc2c(C)cc(C)cc2C)cc1` [Example 17, {4-[6-Methyl-2-(2,4,6-trimethylphenylamino)-pyridine-3-sulfonyl]-phenoxy}-acetic acid ethyl ester] were 116 to 118 °C and 0.5 to 5 µM.
On the same counts, the results for `CCC(Oc1ccc(S(=O)(=O)c2ccc(C)nc2Nc2c(C)cc(C)cc2C)cc1)C(=O)OC` (stereo not shown) [Example 18, 2-{4-[6-Methyl-2-(2,4,6-trimethylphenylamino)-pyridine-3-sulfonyl]-phenoxy}-butyric acid methyl ester] are 111 to 113 °C and 0.1 to 0.5 µM.
On the same counts, the results for `Cc1cc(C)c(Nc2nc(C)ccc2S(=O)(=O)c2ccc(OCc3ccccn3)cc2)c(C)c1` [Example 19, {6-Methyl-3-[4-(pyridin-2-ylmethoxy)-benzenesulfonyl]-pyridin-2-yl}-(2,4,6-trimethylphenyl)-amine] are 182 to 184 °C and 0.1 to 0.5 µM.
With `CCc1ccc(S(=O)(=O)c2ccc(C)nc2Nc2cc(C)c(C)cc2C)cc1` [Example 70, [3-(4-Ethylbenzenesulfonyl)-6-methylpyridin-2-yl]-(2,4,5-trimethylphenyl)-amine], the Ki in data set [1] was no more than 0.1 µM.
